In patent US4590209A, “Alkoxy-acyl carnitines and pharmaceutical compositions containing same” (Sigma-Tau Industrie Farmaceutiche Riunite S.p.A., priority 1980, dated 1986):
Counter-ions that a name gives are not always drawn.

Legend:
rabbit isolated heart = test: Inotropic effect on isolated rabbit heart (Langendorff) after anoxia; settings: dose 10^-5 gl^-1, 10 minutes from the interruption of the anoxic period, percentage increase against controls
Description: Rabbit hearts isolated by the Langendorff method were perfused with oxygenized Ringer solution at 38.2° C. The isometric contractions, electrogardiogram and coronary flow were recorded using a "Battaglia-Rangoni" polygraph. By removing the oxygen from the perfusion fluid, metabolic damage was induced in the cardiac muscle, up to an 80% reduction in the cardiac contractile force.
Under these conditions of prolonged anoxia the aerobic glycolysis of the myocardium is slowed down, accompanied by the storage of acid catabolites due to both the accumulation of pyruvic acid and its conversion to lactic acid which cannot be utilized because of the depression of pyridine enzymes, such as LDH (lactodehydogenase). This has repercussions on the anaerobic glycolysis affecting an ever increasing number of enzymes, accompanied by a progressive and increasingly critical exhaustion of the myocardium. Thus a whole series of cardiac muscle fatigue levels occurs which can be observed by the behavior of the examined parameters, namely the contractile force, coronary flow, heart rate and cardiac rhythm. As soon as the contractile force was reduced by 80%, the perfusion fluid was once again oxygenized either without adding other compounds (controls) or with the addition of the compounds under examination.
In the Table there are shown the percentage value of increase against the controls.

mice = test: Antiarrhythmic / antifibrillatory effect, aconitine-induced arrhythmia (Nwangwu et al.); assay type: in vivo
Description: In order to evaluate the antiarrhythmic activity of the carnitine derivatives of this invention studied with in vivo tests in addition to and in comparison with the currently employed in vitro tests, the method disclosed by Nwangwu et al. (Arch. Inc. Pharmacodyn., 1977, 229, 219) was used.
According to this method an aconitine solution is injected into the caudal vein of mice and the onset time of arrhythmia and tachycardia after 2 to 60 minutes from administration of the compounds under examination is recorded.
The antiarrhythmic activity calculated from the increase in the latency time of the onset of the arrhythmias of the treated animals in comparison with the controls, is illustrated in the Table.

adrenaline = test: Adrenaline-antagonizing effect (adrenaline-induced mortality); assay type: in vivo, male Albino Swiss mice; settings: mice, adrenaline after 30 minutes, mortality checked for 36 hours
Description: Groups of ten male Albino Swiss mice, weighing 12-22 g, were intraperitoneally administered either with the compounds of the present invention or with saline (control) and, after 30 minutes, with adrenaline (treated) at a dose capable of bringing about death to 100% of the control animals due to ventricular fibrillation and cardiac lesions ensuing from increase in frequency, pressure and oxygen uptake from the myocardium.
Mortality was checked for 36 hours and the effect of the compounds expressed as percentage of surviving animals, is shown in the Table.

[1] = Acute toxicity (LD50), Weil method; settings: mouse, in vivo, ip; mice, intraperitoneal; read-out: i.p. LD50
From the text: Acute toxicity was investigated by using the method disclosed by Weil C. S. in "Tables for convenient calculation of median-effective dose (LD50 or ED50) and instructions in their use", Biometrics, 249-253, 1952.
The tolerance of the compounds under examination was investigated in mice after administration by the intraperitoneal or oral route. […] (see the Table).

Row | Compound | Inotropic effect, % of controls (rabbit isolated heart) | Antifibrillatory activity, % reduction (mice; dose 25 mg kg^-1 i.v.) | Antiadrenaline activity, % mortality reduction (adrenaline; dose 50 mg kg^-1 i.p.) | LD50 [1] | Antifibrillatory activity, % reduction (mice; dose 300 mg kg^-1 i.v.) | Antiadrenaline activity, % mortality reduction (adrenaline; dose 450 mg kg^-1 i.p.)
1 | COCCCC(=O)OC(CC(=O)O)C[N+](C)(C)C (centres unmarked) [R = 4-methoxybutyryl, 4-methoxybutyryl carnitine] | +85% | 85% | 78% | 1850 mg/kg | – | –
2 | CCOCCC(=O)OC(CC(=O)O)C[N+](C)(C)C (centres unmarked) [R = 3-ethoxypropionyl, 3-ethoxypropionyl carnitine hydrochloride] | +95% | – | – | 1300 mg/kg | 80% | 75%
